Experimental data as given in publication PMC5934486, “Pheromone Binding Protein EhipPBP1 Is Highly Enriched in the Male Antennae of the Seabuckthorn Carpenterworm and Is Binding to Sex Pheromone Components” (Frontiers in Physiology, 2018).

Experiments:
[1] = target: T1, recombinant EhipPBP1 (Eogystia hippophaecolus, UniProt A0A1B3P5J8); assay: Fluorescence competitive binding assay with 1-NPN as probe; settings: for inhibition: 1-NPN and EhipPBP1 both at 2 μM, read-out: Highest combined rate (%); for inhibition / IC50: pH 7.4; for IC50: concentration of competitor causing 50% reduction of 1-NPN fluorescence, 1-NPN and EhipPBP1 at 2 μM
T1 sequence (A0A1B3P5J8 entry or part of it): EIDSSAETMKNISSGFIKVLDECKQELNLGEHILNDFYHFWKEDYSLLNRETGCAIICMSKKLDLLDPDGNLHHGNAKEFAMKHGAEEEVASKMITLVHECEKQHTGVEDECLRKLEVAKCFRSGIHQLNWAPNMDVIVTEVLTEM
Method: (§1) N-phenyl-1-naphthylamine (1-NPN) was selected for use as a selectively fluorescent probe to measure the affinity of ligand binding to recombinant EhipPBP1 ([Yin et al., 2012]; [Zhong et al., 2012]). Seven pheromone and analog compounds were a gift from Professor Zhang Jintong of Shanxi Agricultural University (Table 1) and were >97% pure. A fluorescence binding assay was performed on a multiscan Spectrum Molecular Device SpectraMax i3 (Thermo Scientific, Wilmington, DE, United States) with an excitation wavelength of 337 nm and recording of emission spectra between 380 and 520 nm. Parameter selection was such that the slit widths for both excitation and emission were 10 nm. Spectra were recorded using high-speed scanning. 2 μM solution of EhipPBP1 was prepared in 20 mM Tris-HCl buffer (pH 7.4), and the ligands were dissolved in chromatographically pure methanol as 1 mM stock solutions. The affinity of EhipPBP1 for the labeled probe was determined by adding aliquots of 1-NPN stock solution to give final concentrations of 2–20 μM. […] To determine dissociation constants, intensity values corresponding to maximum fluorescence emission were plotted against free ligand concentrations. Assuming that the protein was 100% active and that the stoichiometric ratio between protein and ligand was 1:1 at saturation, the bound ligand was determined from the fluorescence intensity values. EhipPBP1 binding with every component was replicated six times. The curves were then linearized using Scatchard plots to calculate K1-NPN values. Dissociation constants of the competitors (Ki) were calculated from the corresponding IC50 values by the following equation: Ki = [IC50]/(1 + [1–NPN]/K1-NPN), where [IC50] was the concentration of a competitor that caused a 50% reduction in the fluorescence intensity, [1–NPN] represented the free concentration of 1–NPN, and K1-NPN represented the dissociation constant of the complex of protein with 1–NPN ([Campanacci et al., 2001]).

[2] = target: T1, recombinant EhipPBP1; assay: Binding of the fluorescent probe 1-NPN to EhipPBP1 (Scatchard analysis); settings: Scatchard method; 2 μM EhipPBP1, 1-NPN 2–20 μM, pH 7.4; read-out: dissociation constant (K1-NPN)
Method: as §1, with “EhipPBP1 binding with every component was replicated six times. The curves were then linearized using Scatchard plots to calculate K1-NPN values. Dissociation constants of the competitors (Ki) were calculated from the corresponding IC50 values by the following equation: Ki = [IC50]/(1 + [1–NPN]/K1-NPN), where [IC50] was the concentration of a competitor that caused a 50% reduction in the fluorescence intensity, [1–NPN] represented the free concentration of 1–NPN, and K1-NPN represented the dissociation constant of the complex of protein with 1–NPN ([Campanacci et al., 2001]).” left out

[3] = calculated from IC50 by Ki = [IC50]/(1 + [1-NPN]/K1-NPN), Table 1
[4] = calculated Kd values in competitive binding assays with 1-NPN

inhibition ([1]; competitor 2–20 μM) [%]	Kd [1, 3] [nM]	IC50 [1] [nM]	Kd [1, 4] [nM]	binding to EhipPBP1 (result in words) ([1]; competitor 2–20 μM)	binding in the range of test concentrations ([1]; competitor 2–20 μM, Kd could not be calculated) [%]	Compound	Kd [2] [nM]
62.3	3150 ± 321	4000	–	–	–	CCCCCCC=CCCCCCCO [Z7-14:OH]	–
–	–	–	–	–	–	c1ccc(Nc2cccc3ccccc23)cc1 [1-NPN, N-phenyl-1-naphthylamine]	3700 ± 60
56.5	2360 ± 201	3000	2360 ± 200	–	–	CCCCCCCCCCC=CCCO [Z3-14:OH]	–
–	–	–	–	No binding was detected	–	CCCCCCCCCC/C=C\CCOC(C)=O [Z3-14:Ac]	–
86.4	1180 ± 12	1500	1180 ± 10	–	–	CCCCCC/C=C\CCCCCCOC(C)=O [Z7-14:Ac, (Z)-7-tetradecenyl acetate]	–
53.1	6300 ± 521	8000	6300 ± 520	–	–	CCCC/C=C/CCCCCCCCOC(C)=O [E9-14:Ac]	–
37.9	–	–	–	–	< 50	CCCCC=CCCCCCCCCOC(C)=O [Z9-14:Ac]	–
89.4	1570 ± 210	2000	1580 ± 210	–	–	CCCCCCCCCC/C=C/CCOC(C)=O [E3-14:Ac, (E)-3-tetradecenyl acetate]	–
